Literature values, collected in paper PMC11999338, “Factor XI localization in human deep venous thrombus and function of activated factor XI on venous thrombus formation and hemostasis” (Research and Practice in Thrombosis and Haemostasis, 2025).
Like-named read-outs stand apart in the source and are kept apart here.

Assays:
[1] = parameters: method as in PMID 33450079; conditions: phase I, approximately 14 days in the fed state in healthy individuals; cited from earlier work
[2] = system: inferior vena cava thrombus; parameters: method as in PMID 21614454; conditions: rabbits, i.v. administration; cited from earlier work
[3] = patients with atrial fibrillation; asundexian 50 mg, once daily; cited from earlier work
VTE = conditions: cited from earlier work
venous thrombus = system: venous thrombus; parameters: method as in PMID 23925504; conditions: mice, cited from earlier work
[4] = patients after knee arthroplasty, phase II

## Nc1ccc(-c2nc([C@H]3CCc4cc(-c5cc(Cl)ccc5-n5cnnn5)cc(=O)n43)c(F)[nH]2)c(F)n1 (stereo in doubt) [ONO-7684]
[1]
  safety and tolerability: showed safety and tolerability

## CC(C)(C)NC(=O)N1CCN(C(=O)N2C(=O)[C@H](CCCN=C(N)N)[C@H]2C(=O)O)CC1 [BMS-262084]
[2]
  silk thread-induced thrombus in the inferior vena cava: reduced

## COc1ccc(-n2nc(C(N)=O)c3c2C(=O)N(c2ccc(N4CCCCC4=O)cc2)CC3)cc1 [apixaban]
[3]
  bleeding rate: 2.4%
VTE; [4]
  major or clinically relevant nonmajor bleeding rate: ~2%

## enoxaparin
Venous thrombus; ferric chloride-induced
  venous thrombus formation: strongly inhibited
Venous thrombus; tail cut
  bleeding time: prolonged
VTE; [4]
  major or clinically relevant nonmajor bleeding rate: ~5.9%

## osocimab: human monoclonal anti-FXI antibody
VTE; human, in vivo
  major or clinically relevant nonmajor bleeding rate: approximately 4.7%
VTE; single infusion, compared with enoxaparin, patients after knee arthroplasty
  incidence of VTE at 10 to 13 days: noninferiority
